Laboratory results from patent US20070083037A1, “Monkey npy y4 receptor and method of evaluating compound” (priority 2003, published 2007).

Assays:
[1] = tested on: rhesus monkey NPY Y4 receptor (SEQ ID NO: 1); experiment: Receptor binding assay using rhesus monkey Y4 receptor-expressing COS-7 cell membrane fractions (SEQ ID NO: 1), inhibition of [125I]human PP binding; conditions: expression vector SEQ ID NO: 1; COS-7 membrane fraction; 59 pM [125I]human PP; read-out: IC50 against specific [125I]human PP binding
Method: (§1) COS-7 cells were transfected with a pEF1/[…]B plasmid vector containing the nucleotide sequence of SEQ ID NO: 1 or 3, using LipofectAmine Plus (Invitrogen). After 48 hours, the cells were recovered, and disrupted in 10 mM MOPS buffer (pH 7.4) containing 20% sucrose, 154 mM NaCl, 10 mM KCl and 0.8 mM CaCl2, using a Polytron homogenizer (Kinematica) while cooling on ice. The obtained homogenate was centrifuged at 1,000×g, 4° C. for 15 minutes, the supernatant was centrifuged at 90,000×g for 50 minutes, and the precipitate was collected. It was then suspended in 5 mM HEPES/Tris buffer (pH 7.4) and then centrifuged again at 90,000×g for 50 minutes, after which the obtained precipitate was collected as the membrane sample. […] After rinsing with 5 mM Tris buffer (pH 7.4) containing 0.3% bovine serum albumin and drying, MicroScint0 (Perkin-Elmer) was added, and a TopCount HTS (Packard) was used to measure the residual radioactivity on the filter.

[2] = tested on: rhesus monkey NPY Y4 receptor (SEQ ID NO: 3); experiment: Receptor binding assay using rhesus monkey Y4 receptor-expressing COS-7 cell membrane fractions (SEQ ID NO: 3), inhibition of [125I]human PP binding; conditions: expression vector SEQ ID NO: 3; COS-7 membrane fraction; 59 pM [125I]human PP; read-out: IC50 against specific [125I]human PP binding
Method: as §1

[3] = tested on: rhesus monkey NPY Y4 receptor (SEQ ID NO: 1); experiment: [125I]human PP binding assay using COS-7 cells expressing rhesus monkey Y4 receptor (SEQ ID NO: 1); conditions: COS-7 cells transfected with SEQ ID NO: 1; 50 pM [125I]human PP; non-specific binding with 1 μM human PP
Method: (§2) COS-7 cells (American Type Culture Collection) were seeded in a 24-well culturing plate at a density of 5×10^4 cells/well, and after 24 hours, they were transfected with a pEF1/V5-HisB plasmid vector containing the nucleotide sequence of SEQ ID NO: 1 or 3 obtained in Example 1 or the same vector without the insert (mock), using Efectene (Qiagen). After culturing for 48 hours, incubation was performed at 37° C. for 30 minutes in 240 μl/well of reaction buffer (Hanks' balanced salt solution containing 20 mM HEPES and 0.2% bovine serum albumin; pH 7.4) to which 50 pM [^125I]human PP (Perkin-Elmer) had been added. After rinsing with ice-cooled reaction buffer, the cells were lysed and recovered with 2M NaOH and the radioactivity was measured with a γ-counter (Packard, Cobra).
(§3) Non-specific binding was also measured by adding 1 μM human PP to the reaction solution.

[4] = tested on: rhesus monkey NPY Y4 receptor (SEQ ID NO: 3); experiment: [125I]human PP binding assay using COS-7 cells expressing rhesus monkey Y4 receptor (SEQ ID NO: 3); conditions: COS-7 cells transfected with SEQ ID NO: 3; 50 pM [125I]human PP; non-specific binding with 1 μM human PP
Method: as §2, §3

Sequence of rhesus monkey NPY Y4 receptor (SEQ ID NO: 3) (as listed by the source): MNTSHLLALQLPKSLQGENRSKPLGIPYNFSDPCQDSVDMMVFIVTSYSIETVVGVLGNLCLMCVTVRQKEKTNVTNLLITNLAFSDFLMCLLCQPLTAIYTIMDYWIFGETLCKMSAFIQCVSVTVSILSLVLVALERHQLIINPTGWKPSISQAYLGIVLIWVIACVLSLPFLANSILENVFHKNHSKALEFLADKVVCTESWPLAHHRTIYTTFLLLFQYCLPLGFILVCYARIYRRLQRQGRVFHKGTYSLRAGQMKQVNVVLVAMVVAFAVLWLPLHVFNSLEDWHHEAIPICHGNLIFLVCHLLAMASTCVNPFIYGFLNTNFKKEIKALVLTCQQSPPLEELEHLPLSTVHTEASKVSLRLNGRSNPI
Sequence of rhesus monkey NPY Y4 receptor (SEQ ID NO: 1) (as listed by the source): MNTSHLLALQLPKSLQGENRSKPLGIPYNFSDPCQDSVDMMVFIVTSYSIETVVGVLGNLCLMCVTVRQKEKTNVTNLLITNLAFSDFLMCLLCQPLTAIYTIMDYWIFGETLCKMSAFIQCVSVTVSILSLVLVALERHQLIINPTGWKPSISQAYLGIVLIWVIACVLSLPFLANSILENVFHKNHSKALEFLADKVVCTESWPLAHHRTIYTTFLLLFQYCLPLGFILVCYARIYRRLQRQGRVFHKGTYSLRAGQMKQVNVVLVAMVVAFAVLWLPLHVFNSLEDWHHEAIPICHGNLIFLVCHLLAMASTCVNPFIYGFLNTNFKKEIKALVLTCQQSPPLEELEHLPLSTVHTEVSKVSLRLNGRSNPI

IC50 [1]	IC50 [2]	Substance	Specific binding [3]	Specific binding [4]
100 nM	97 nM	Neuropeptide-Y [Human NPY]	–	–
–	–	[125I]human PP: 125I-labelled human PP radioligand (Perkin-Elmer)	1238 cpm	1394 cpm
